Consider one molecule from publication PMC11233931, “Remodeling tumor‐associated macrophage for anti‐cancer effects by rational design of irreversible inhibition of mitogen‐activated protein kinase‐activated protein kinase 2” (MedComm, 2024).

The structures appear in SMILES notation.

Assay in all cases: Eurofins kinase selectivity profile against 380 other human recombinant kinases (Table S2)
What all share (format): biochemical

For assay [1], the target named is T1, 380 human recombinant protein kinases (Homo sapiens, UniProt Q96PY6).
T1 construct: purchased Eurofins (Celle Lévescault)
T1 sequence (Q96PY6 1-1258): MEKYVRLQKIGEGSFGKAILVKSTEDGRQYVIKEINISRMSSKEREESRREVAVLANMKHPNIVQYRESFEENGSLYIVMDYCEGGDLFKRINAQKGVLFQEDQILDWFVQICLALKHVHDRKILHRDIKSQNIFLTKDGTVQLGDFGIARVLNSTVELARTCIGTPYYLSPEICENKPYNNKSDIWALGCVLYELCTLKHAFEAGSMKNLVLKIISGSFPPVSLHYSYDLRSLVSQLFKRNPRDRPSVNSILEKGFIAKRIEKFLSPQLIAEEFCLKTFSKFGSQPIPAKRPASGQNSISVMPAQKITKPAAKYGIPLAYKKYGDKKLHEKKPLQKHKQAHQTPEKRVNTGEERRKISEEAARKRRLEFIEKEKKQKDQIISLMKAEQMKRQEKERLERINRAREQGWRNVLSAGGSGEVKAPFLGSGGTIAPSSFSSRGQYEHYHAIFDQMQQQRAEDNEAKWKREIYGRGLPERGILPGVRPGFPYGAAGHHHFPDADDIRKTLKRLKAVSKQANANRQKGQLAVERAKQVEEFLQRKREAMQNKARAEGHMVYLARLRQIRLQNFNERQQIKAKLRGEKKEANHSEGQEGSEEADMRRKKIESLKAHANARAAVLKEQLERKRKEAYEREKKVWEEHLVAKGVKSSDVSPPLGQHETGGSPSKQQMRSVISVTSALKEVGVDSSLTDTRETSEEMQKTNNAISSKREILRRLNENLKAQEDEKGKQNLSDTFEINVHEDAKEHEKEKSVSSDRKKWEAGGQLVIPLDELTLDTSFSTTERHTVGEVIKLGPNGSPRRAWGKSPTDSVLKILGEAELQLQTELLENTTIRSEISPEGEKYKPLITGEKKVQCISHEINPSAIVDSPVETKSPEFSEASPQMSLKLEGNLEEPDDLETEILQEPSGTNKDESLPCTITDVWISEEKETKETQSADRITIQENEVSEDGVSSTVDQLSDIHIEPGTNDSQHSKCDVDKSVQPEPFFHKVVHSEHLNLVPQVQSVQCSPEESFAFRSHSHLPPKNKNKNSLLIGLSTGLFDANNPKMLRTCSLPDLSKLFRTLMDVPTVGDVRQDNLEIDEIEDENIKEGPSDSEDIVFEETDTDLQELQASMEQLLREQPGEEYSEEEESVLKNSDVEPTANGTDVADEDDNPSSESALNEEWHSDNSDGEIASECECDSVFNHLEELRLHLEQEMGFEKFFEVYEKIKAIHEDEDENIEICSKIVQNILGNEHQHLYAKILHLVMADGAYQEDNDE
Particulars: NEK1(h), read-out: Inhibition rate. Summed up:
(§1)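 To gauge specificity for MK2, the compound is profiled externally at various concentrations on recombinant human kinases, 380 in total.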

Assay [2] addresses T2, 380 human recombinant protein kinases (Homo sapiens, UniProt P52333).
T2 construct: purchased Eurofins (Celle Lévescault)
T2 sequence (P52333 1-1124): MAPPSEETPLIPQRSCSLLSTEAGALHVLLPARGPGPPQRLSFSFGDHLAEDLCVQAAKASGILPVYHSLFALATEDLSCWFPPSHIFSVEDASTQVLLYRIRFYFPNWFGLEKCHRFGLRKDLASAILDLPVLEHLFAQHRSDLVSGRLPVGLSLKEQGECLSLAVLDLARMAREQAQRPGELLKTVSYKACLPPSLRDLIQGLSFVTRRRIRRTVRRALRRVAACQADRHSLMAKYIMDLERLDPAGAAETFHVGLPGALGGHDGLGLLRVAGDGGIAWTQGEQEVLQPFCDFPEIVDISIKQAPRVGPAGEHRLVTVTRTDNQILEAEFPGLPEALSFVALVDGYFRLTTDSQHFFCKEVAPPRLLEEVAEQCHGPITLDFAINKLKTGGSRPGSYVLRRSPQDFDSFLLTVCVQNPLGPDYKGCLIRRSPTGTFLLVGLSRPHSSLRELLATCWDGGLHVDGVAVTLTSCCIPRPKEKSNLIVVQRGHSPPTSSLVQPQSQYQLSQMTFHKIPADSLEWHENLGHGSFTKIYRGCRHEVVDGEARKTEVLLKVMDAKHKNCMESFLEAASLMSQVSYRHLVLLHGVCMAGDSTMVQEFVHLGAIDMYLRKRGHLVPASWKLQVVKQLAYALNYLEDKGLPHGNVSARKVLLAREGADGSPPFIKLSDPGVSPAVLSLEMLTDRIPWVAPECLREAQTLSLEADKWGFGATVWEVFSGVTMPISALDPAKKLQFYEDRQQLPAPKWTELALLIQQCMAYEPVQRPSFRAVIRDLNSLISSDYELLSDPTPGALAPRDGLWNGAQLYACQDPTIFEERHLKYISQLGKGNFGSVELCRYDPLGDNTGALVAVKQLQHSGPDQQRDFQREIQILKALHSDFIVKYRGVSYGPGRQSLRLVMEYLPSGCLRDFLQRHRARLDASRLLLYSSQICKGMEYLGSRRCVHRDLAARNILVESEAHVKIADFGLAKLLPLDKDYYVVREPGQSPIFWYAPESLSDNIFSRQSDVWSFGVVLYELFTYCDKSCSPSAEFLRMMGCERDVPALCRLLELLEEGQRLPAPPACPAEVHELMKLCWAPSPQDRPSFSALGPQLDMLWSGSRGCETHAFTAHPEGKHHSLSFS
As to conditions: JAK3(h), read-out: Inhibition rate. In a few lines:
as §1

Assay [3] deals with T3, 380 human recombinant protein kinases (Homo sapiens, UniProt P29597).
T3 construct: purchased Eurofins (Celle Lévescault)
As to conditions: TYK2(h), read-out: Inhibition rate (%). In a few lines: as §1

Assay [4] has as its target T4, 380 human recombinant protein kinases (Homo sapiens, UniProt Q8IVW4).
T4 construct: purchased Eurofins (Celle Lévescault)
As to conditions: CDKL3(h), read-out: Inhibition rate. In a few lines:
as §1

T4 sequence (Q8IVW4 whole entry): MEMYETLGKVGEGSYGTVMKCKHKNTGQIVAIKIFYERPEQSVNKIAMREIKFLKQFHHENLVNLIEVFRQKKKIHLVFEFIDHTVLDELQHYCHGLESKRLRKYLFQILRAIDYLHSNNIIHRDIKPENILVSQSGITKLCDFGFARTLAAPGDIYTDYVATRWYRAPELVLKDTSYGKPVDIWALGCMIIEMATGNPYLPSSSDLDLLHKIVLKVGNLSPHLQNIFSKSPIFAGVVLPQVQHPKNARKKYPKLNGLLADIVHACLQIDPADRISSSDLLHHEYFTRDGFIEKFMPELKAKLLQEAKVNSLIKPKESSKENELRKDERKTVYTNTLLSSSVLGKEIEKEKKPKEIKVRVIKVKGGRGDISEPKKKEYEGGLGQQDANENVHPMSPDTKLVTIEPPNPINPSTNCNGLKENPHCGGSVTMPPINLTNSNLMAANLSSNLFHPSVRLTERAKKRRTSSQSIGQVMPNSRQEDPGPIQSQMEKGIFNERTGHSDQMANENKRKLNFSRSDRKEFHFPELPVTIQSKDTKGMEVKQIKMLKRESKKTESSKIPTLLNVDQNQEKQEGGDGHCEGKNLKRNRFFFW
T3 sequence (P29597 whole entry): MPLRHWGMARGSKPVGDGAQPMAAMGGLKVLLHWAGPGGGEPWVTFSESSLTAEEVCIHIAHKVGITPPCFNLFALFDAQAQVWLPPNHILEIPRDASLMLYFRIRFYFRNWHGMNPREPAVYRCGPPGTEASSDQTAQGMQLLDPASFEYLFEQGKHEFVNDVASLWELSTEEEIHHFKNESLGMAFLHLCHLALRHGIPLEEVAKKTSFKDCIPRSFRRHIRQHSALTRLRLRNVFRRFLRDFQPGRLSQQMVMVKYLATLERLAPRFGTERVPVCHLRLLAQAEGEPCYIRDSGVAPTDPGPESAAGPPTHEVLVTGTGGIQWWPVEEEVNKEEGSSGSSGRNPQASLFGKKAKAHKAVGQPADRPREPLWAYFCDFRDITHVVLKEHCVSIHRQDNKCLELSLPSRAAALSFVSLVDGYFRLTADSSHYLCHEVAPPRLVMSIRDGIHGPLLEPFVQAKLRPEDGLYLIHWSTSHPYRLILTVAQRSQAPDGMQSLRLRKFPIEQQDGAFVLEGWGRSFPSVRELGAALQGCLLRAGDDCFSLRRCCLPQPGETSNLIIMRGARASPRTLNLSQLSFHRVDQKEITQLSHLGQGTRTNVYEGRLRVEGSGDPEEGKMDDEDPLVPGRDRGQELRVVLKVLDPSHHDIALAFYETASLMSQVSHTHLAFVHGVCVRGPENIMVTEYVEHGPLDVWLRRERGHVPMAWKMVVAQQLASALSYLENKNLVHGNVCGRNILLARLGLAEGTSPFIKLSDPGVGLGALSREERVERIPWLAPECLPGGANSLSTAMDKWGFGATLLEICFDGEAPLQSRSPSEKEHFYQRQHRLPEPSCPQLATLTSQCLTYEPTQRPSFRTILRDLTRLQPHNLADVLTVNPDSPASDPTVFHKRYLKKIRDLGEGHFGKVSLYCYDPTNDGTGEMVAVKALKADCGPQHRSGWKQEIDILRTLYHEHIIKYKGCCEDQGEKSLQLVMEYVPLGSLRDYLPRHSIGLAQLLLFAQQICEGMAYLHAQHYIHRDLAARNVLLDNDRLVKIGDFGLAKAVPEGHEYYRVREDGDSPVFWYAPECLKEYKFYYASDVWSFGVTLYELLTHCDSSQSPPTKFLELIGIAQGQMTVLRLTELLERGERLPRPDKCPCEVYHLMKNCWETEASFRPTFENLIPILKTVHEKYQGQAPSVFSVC

One may read the inhibition as the drop in the measured response relative to a control, in per cent. Take `C=CC(=O)Nc1cc(-c2cc(-c3cc4c([nH]3)CCNC4=O)ccn2)ccc1OC(F)(F)F` [compound 11]: the inhibition at 0.01 µM in assay [1] (10 nM) was -3%; in assay [2] (10 nM) it was 8%; in assay [3] (10 nM) it was 1%; in assay [4] (10 nM), 52%. For the same molecule, the inhibition at 0.1 µM is -1% in assay [1] (100 nM), 5% in assay [2] (100 nM), 10% in assay [3] (100 nM) and 88% in assay [4] (100 nM). Moreover, the inhibition at 1 µM in assay [1] (1000 nM) stood at 11%; in assay [2] (1000 nM) it was 12%; in assay [3] (1000 nM) it was 14%; in assay [4] (1000 nM) it was 99%.
